Measured values from US7960590B2, “Method for producing ethyleneamines from untreated AAN” (BASF SE, priority 2007, dated 2011).

Assay: Solubility of IDAN in THF and in AAN

Structure (SMILES): N#CCNCC#N [IDAN, iminodiacetonitrile]
- dissolved concentration (in AAN at 40° C.): ~52%
- dissolved concentration (in AAN, room temperature, up to): ~35%
- solubility (in THF at room temperature): ~10%
